Values of other authors as cited in PMC3783256 (Marine Drugs, 2004).

Molecular target: RyR1-FKBP12 complex (Oryctolagus cuniculus, UniProt P11716)
Conditions: read-out: EC50, weak agonists of the receptor; ref 8a

Chain of RyR1-FKBP12 complex (P11716 whole entry): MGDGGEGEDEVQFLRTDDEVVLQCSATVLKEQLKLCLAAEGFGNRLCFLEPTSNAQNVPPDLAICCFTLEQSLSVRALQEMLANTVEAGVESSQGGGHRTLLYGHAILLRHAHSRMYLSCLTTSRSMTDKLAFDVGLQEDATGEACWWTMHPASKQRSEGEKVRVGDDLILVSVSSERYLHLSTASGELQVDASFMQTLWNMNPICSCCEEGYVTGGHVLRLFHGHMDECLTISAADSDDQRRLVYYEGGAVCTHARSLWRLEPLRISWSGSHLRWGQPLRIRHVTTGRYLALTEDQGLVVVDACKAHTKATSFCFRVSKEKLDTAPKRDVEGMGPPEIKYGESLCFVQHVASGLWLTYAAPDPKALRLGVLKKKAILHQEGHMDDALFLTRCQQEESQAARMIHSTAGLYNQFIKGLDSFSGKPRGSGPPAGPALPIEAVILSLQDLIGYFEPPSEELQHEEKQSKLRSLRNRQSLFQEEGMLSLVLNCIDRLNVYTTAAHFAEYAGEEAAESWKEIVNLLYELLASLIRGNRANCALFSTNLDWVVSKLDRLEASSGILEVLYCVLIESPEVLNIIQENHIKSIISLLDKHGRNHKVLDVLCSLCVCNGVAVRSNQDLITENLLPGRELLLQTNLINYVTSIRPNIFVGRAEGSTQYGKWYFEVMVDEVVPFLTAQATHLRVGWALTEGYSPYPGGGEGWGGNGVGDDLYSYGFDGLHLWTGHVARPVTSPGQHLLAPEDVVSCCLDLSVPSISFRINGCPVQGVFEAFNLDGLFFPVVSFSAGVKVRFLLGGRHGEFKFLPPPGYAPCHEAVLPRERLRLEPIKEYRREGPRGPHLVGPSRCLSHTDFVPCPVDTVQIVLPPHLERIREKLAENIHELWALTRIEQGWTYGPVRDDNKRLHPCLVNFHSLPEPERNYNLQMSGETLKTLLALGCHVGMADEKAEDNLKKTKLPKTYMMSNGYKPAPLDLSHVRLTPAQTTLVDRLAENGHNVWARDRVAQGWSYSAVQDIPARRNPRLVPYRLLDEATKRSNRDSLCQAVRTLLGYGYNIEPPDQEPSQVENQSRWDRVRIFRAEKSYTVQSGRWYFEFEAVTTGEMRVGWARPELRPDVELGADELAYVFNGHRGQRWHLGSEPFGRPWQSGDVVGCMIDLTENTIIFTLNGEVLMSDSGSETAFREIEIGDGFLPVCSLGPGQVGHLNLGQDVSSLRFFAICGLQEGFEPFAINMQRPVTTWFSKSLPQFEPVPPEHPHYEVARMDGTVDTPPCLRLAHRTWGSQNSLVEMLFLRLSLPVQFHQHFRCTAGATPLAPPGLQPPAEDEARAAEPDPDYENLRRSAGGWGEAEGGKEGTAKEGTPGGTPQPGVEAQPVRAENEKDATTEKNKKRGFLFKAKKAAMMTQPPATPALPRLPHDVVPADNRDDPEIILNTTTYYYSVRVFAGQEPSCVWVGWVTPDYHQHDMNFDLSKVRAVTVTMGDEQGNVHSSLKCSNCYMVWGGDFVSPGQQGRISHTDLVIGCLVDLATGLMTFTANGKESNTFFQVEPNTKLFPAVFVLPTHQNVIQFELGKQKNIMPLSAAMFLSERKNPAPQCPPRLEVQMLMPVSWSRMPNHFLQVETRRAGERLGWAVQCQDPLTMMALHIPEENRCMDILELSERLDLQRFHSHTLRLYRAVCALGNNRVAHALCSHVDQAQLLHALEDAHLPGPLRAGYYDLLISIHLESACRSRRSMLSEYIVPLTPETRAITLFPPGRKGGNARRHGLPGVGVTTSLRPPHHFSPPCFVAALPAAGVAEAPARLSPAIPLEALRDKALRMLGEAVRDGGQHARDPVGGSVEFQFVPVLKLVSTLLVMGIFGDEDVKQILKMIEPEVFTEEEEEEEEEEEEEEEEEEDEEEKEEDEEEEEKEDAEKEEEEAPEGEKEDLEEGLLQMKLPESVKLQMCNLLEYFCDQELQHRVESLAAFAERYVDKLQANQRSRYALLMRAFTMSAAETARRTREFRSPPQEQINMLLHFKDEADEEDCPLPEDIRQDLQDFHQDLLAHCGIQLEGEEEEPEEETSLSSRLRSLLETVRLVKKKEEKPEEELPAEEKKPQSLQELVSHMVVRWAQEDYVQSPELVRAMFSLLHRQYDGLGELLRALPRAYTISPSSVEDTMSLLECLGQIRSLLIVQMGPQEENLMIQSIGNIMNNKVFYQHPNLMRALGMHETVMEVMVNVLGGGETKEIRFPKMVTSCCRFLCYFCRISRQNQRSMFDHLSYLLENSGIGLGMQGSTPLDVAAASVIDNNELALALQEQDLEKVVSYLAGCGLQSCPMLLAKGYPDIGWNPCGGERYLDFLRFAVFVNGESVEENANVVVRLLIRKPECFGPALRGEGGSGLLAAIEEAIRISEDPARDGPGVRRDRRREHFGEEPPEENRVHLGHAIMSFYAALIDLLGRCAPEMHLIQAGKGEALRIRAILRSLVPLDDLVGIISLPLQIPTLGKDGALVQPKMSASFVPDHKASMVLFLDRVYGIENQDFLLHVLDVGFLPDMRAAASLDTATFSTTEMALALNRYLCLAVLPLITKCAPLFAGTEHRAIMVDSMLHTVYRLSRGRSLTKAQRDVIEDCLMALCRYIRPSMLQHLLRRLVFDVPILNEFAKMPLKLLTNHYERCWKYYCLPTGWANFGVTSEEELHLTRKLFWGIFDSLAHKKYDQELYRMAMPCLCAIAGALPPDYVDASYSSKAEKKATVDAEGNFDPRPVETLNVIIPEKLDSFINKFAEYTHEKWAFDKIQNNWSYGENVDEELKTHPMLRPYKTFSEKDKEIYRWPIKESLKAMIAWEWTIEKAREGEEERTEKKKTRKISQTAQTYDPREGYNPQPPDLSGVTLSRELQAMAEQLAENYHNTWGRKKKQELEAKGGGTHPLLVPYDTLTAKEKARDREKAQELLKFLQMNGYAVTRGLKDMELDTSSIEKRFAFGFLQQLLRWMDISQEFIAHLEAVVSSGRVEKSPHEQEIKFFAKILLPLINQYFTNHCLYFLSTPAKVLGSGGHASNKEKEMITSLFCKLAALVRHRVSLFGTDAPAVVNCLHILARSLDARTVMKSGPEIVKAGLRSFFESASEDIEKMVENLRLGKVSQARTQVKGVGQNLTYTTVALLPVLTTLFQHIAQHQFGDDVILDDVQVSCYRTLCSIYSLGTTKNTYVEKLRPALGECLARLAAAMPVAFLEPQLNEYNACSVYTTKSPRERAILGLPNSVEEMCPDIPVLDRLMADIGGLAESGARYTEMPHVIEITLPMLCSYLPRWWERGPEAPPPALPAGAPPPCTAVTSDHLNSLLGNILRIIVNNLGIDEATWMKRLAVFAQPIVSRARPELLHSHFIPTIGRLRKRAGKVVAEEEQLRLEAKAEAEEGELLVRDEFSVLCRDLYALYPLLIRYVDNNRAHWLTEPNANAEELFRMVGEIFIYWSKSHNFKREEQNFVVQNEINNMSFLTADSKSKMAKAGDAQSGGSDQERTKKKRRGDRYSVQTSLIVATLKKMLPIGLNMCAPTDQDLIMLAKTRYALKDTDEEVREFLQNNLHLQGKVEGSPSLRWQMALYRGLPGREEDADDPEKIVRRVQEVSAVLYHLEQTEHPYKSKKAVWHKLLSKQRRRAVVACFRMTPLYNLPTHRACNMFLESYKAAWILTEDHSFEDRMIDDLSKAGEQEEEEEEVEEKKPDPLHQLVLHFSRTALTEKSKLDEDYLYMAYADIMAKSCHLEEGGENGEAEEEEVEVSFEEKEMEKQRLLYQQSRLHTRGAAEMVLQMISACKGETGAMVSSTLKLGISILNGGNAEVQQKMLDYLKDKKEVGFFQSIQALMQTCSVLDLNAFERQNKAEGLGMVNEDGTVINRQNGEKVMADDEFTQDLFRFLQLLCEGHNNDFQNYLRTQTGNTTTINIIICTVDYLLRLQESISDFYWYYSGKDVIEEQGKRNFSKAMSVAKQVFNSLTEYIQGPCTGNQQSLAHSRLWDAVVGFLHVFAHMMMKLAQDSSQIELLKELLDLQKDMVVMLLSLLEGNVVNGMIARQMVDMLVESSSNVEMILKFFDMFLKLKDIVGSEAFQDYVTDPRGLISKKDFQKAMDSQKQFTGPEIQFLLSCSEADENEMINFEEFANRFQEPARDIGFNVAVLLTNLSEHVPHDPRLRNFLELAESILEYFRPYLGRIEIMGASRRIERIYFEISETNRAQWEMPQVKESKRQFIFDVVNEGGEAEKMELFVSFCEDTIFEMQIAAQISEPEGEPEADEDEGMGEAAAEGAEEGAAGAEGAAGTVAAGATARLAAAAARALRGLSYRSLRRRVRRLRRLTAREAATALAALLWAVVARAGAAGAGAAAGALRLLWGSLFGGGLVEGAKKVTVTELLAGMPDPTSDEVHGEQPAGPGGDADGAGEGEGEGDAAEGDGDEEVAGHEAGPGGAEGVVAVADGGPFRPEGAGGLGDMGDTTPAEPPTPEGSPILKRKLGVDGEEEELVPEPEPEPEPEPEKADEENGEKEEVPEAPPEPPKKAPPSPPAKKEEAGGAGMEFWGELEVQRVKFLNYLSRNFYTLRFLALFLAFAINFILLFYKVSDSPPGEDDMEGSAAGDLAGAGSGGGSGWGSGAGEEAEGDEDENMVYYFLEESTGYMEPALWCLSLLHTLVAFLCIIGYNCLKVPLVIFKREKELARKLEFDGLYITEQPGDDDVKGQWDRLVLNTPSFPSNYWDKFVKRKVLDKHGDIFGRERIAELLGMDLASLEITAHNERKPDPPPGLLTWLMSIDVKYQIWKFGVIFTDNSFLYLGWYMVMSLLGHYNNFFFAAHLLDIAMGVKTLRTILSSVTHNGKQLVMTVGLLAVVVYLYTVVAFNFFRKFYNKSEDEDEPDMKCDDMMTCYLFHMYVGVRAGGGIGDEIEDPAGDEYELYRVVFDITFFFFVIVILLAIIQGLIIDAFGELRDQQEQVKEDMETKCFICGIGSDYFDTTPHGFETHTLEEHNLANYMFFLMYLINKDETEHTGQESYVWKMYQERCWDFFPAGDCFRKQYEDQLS
Chain of RyR1-FKBP12 complex (P62943 2-108 partner limits assumed): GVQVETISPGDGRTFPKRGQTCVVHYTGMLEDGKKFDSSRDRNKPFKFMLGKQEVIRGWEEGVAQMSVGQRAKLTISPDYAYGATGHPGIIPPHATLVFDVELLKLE

Substance: 15,34-O-di-sulfatobastadin-7
- EC50: 13.6 µM
